In patent US20030215462A1, “Use of UGT inhibitors to increase bioavailability” (priority 2001, published 2003):
“And” between values parts separate entries of the source, which are not always exact repeats. Equal values may be shown once.

Experiments:
[1] = test system: T1, UGT enzymes of human liver microsomes; assay: Inhibition of 2ME2 glucuronidation (MG1, MG2) in human liver microsomes; type: biochemical; details: liver 062101, 2ME2 50 μM
T1 construct: other: liver 062101
Excerpt: Compounds were eluted using a binary solvent gradient system where solvent A was dilute phosphoric acid (pH 3) and solvent B was 80:20 acetonitrile-methanol. […] Detection was at 280 nm.

[2] = molecular target: T2, UGT enzymes of human liver microsomes; assay: Inhibition of 7-HFC glucuronidation in human liver microsomes; type: biochemical; details: for % of control metabolism (SD, n = 3), 7-HFC glucuronidation: human liver microsomes 100 μg/ml
T2 construct: percentage of control metabolism, 7-HFC glucuronidation; percentage of control metabolism, 7-HFC glucuronidation

[3] = test system: UGT enzymes of human liver microsomes; assay: Inhibition of raloxifene glucuronidation (G1, G2) in human liver microsomes; type: biochemical; details: for % of control metabolism (SD, n = 3), raloxifene glucuronide G1 / % of control metabolism (SD, n = 3), raloxifene glucuronide G2: human liver microsomes 250 μg/ml, 15 min
Excerpt: Compounds were eluted using a binary solvent gradient system. […] Solvent B was methanol. […] Detection was at 280 nm.

UGT1A1 = molecular target: T3, UGT1A1 (Homo sapiens, UniProt P22309); assay: Inhibition of raloxifene glucuronidation by recombinant UGT1A1 Supersomes; details: for activity at 15 min / activity at 15 min, 10 µM / activity at 15 min, 25 µM / activity at 15 min, 50 µM: human; for activity at 15 min, 10 µM: inhibitor 10 μM; for activity at 15 min, 25 µM: inhibitor 25 μM; for activity at 15 min, 50 µM: inhibitor 50 μM
T3 sequence (P22309 26-533): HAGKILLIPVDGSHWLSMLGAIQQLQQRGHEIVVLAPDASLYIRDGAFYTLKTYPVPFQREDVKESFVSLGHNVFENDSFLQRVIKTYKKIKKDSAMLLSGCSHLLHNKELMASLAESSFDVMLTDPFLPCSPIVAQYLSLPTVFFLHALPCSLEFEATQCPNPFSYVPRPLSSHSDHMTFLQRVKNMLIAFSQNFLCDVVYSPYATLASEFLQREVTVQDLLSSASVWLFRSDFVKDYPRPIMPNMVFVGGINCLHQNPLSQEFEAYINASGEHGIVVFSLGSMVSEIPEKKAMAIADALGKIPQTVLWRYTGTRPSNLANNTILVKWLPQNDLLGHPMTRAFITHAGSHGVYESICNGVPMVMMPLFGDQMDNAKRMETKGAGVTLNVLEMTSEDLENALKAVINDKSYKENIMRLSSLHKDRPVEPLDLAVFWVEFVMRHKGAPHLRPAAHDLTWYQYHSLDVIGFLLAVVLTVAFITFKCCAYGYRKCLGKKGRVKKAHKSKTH
Procedure: (§1) Compounds were eluted using a binary solvent gradient system. Solvent A was water brought to pH 8 with NH4OH. Solvent B was methanol. Solvent flow rate was 1 ml/min and the column temperature was maintained at 50° C. Detection was at 280 nm. […] The system was then returned to the initial conditions and equilibrated for 3 min.

[4] = test system: T2, UGT enzymes of human liver microsomes; assay: Kinetic and Ki studies of inhibitors of 7-HFC glucuronidation in human liver microsomes; type: biochemical; details: 7-HFC 20-500 μM
UGT1A3 = molecular target: T4, UGT1A3 (Homo sapiens, UniProt P35503); assay: Inhibition of raloxifene glucuronidation by recombinant UGT1A3 Supersomes; details: for activity at 15 min, 10 µM / activity at 15 min, 25 µM / activity at 15 min, 50 µM: human; for activity at 15 min, 10 µM: inhibitor 10 μM; for activity at 15 min, 25 µM: inhibitor 25 μM; for activity at 15 min, 50 µM: inhibitor 50 μM
T4 sequence (P35503 29-534): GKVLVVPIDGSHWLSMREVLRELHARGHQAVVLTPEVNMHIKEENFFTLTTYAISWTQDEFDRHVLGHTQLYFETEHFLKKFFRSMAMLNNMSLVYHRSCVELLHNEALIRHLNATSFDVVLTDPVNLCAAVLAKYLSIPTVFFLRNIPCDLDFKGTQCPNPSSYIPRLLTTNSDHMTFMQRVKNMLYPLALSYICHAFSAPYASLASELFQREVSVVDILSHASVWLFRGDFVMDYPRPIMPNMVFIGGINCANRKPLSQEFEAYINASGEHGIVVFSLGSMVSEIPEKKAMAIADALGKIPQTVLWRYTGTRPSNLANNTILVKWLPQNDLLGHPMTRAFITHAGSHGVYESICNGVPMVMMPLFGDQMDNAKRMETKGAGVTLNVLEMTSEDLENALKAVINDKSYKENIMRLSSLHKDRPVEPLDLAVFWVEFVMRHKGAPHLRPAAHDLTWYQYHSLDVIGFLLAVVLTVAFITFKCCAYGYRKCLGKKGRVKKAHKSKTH
Procedure: as §1

[5] = inhibitor 10 μM, raloxifene 50 μM
[6] = inhibitor 25 μM, raloxifene 50 μM
[7] = inhibitor 50 μM, raloxifene 50 μM
[8] = inhibitor 100 μM, raloxifene 50 μM
[9] = liver lot 032101, inhibitor 50 μM
[10] = liver lot 062101, inhibitor 50 μM
[11] = liver lot 083000, inhibitor 50 μM
[12] = raloxifene 50 μM, inhibitor 10 μM
[13] = raloxifene 50 μM, inhibitor 25 μM
[14] = raloxifene 50 μM, inhibitor 50 μM
[15] = raloxifene 50 μM, inhibitor 100 μM
[16] = Supersomes with recombinant human UGT1A1, pH 7.5, probe raloxifene 50 μM, formation of glucuronide G1, % of control metabolism, raloxifene G1, UGT1A1
[17] = Supersomes with recombinant human UGT1A1, pH 7.5, probe raloxifene 50 μM, formation of glucuronide G1, Inhibition of raloxifene glucuronidation, G1, UGT1A1, G1, raloxifene 50 μM, 250 μg/ml Supersomes, 1 mM UDPGA, 15 min
[18] = Supersomes with recombinant human UGT1A1, pH 7.5, probe raloxifene 50 μM, formation of glucuronide G2, % of control metabolism, raloxifene G2, UGT1A1
[19] = recombinant UGT1A1 Supersomes, pH 7.5, probe raloxifene 50 μM (formation of glucuronide G2), Inhibition of raloxifene glucuronidation, G2, UGT1A1, G2, raloxifene 50 μM, 250 μg/ml Supersomes, 1 mM UDPGA, 15 min
[20] = Supersomes with recombinant human UGT1A3, pH 7.5, probe raloxifene 50 μM, formation of glucuronide G1, % of control metabolism, raloxifene G1, UGT1A3
[21] = Supersomes with recombinant human UGT1A3, pH 7.5, probe raloxifene 50 μM, formation of glucuronide G2, % of control metabolism, raloxifene G2, UGT1A3
[22] = recombinant UGT1A3 Supersomes, pH 7.5, probe raloxifene 50 μM (formation of glucuronide G1), Inhibition of raloxifene glucuronidation, G1, UGT1A3, G1, raloxifene 50 μM, 250 μg/ml Supersomes, 1 mM UDPGA, 15 min
[23] = recombinant UGT1A3 Supersomes, pH 7.5, probe raloxifene 50 μM (formation of glucuronide G2), Inhibition of raloxifene glucuronidation, G2, UGT1A3, G2, raloxifene 50 μM, 250 μg/ml Supersomes, 1 mM UDPGA, 15 min

In the case of `CCCCCCCCOC(=O)c1cc(O)c(O)c(O)c1` [Octyl gallate], the “residual metabolism (% of control), 2ME2 MG1” value ([1]; inhibitor 50 μM) is reported as 68 (3) %, the “residual metabolism (% of control), 2ME2 MG2” value ([1]; inhibitor 50 μM) is reported as 94 (4) % and the “residual metabolism (% of control), 2ME2 MG1” value ([1]; inhibitor 100 μM) is reported as 51 (0) %. For the same compound, the “residual metabolism (% of control), 2ME2 MG2” value ([1]; inhibitor 100 μM) was 65 (3) %, the IC50 ([2]; 7-HFC 50 μM, 1 mM UDPGA, 15 min) was roughly 75 µM and the “percentage of control metabolism, 7-HFC glucuronidation” value (“percentage of control metabolism” for short) ([2]; inhibitor 25 μM) was 86 (1) %. The “% of control metabolism (SD, n = 3), 7-HFC glucuronidation” value ([2]; inhibitor 25 μM, 7-HFC 50 μM, 15 min) was 86 (1) %, the “percentage of control metabolism” value ([2]; inhibitor 50 μM) was 65 (0) % and the “% of control metabolism (SD, n = 3), 7-HFC glucuronidation” value ([2]; inhibitor 50 μM, 7-HFC 50 μM, 15 min) was 65 (0) %. For the same compound, the “percentage of control metabolism” value ([2]; inhibitor 100 μM) was 26 (1) % and 29 (1) %, the “% of control metabolism (SD, n = 3), 7-HFC glucuronidation” value ([2]; inhibitor 100 μM, 7-HFC 50 μM, 15 min) was 26 (1), % and 29 (1) % and the “percentage of control metabolism” value ([2]; inhibitor 200 μM) was 6 (0) %. The “% of control metabolism (SD, n = 3), 7-HFC glucuronidation” value ([2]; inhibitor 200 μM, 7-HFC 50 μM, 15 min) was 6 (0) %, the “percentage of control metabolism” value ([2]; inhibitor 500 μM) was 0.1 (0.1) % and the “% of control metabolism (SD, n = 3), 7-HFC glucuronidation” value ([2]; inhibitor 500 μM, 7-HFC 50 μM, 15 min) was 0.1 (0.1) %. For the same compound, the “% of control metabolism (SD, n = 3), raloxifene glucuronide G1” value [3, 5] was 68 (3) %, the “% of control metabolism (SD, n = 3), raloxifene glucuronide G1” value [3, 6] was 48 (6) % and the “% of control metabolism (SD, n = 3), raloxifene glucuronide G1” value [3, 7] was 37 (2) %. The “% of control metabolism (SD, n = 3), raloxifene glucuronide G1” value [3, 8] was 31 (3) %, the “% of control metabolism (SD, n = 3), raloxifene glucuronide G2” value [3, 5] was 75 (8) % and the “% of control metabolism (SD, n = 3), raloxifene glucuronide G2” value [3, 6] was 59 (5) %. For the same compound, the “% of control metabolism (SD, n = 3), raloxifene glucuronide G2” value [3, 7] was 46 (3) %, the “% of control metabolism (SD, n = 3), raloxifene glucuronide G2” value [3, 8] was 52 (7) % and the “% of control metabolism, raloxifene G1” value [3, 9] was 45 (1) %. For the same compound, the “% of control metabolism, raloxifene G2” value [3, 9] was 59 (3) %, the “% of control metabolism, raloxifene G1” value [3, 10] was 55 (5) % and the “% of control metabolism, raloxifene G2” value [3, 10] was 45 (6) %. For the same compound, the “% of control metabolism, raloxifene G1” value [3, 11] was 37 (2) %, the “% of control metabolism, raloxifene G2” value [3, 11] was 46 (3) % and the “% of control metabolism, raloxifene G1” value [3, 12] was 68 (3) %. The “% of control metabolism, raloxifene G2” value [3, 12] was 75 (8) %, the “% of control metabolism, raloxifene G1” value [3, 13] was 48 (6) % and the “% of control metabolism, raloxifene G2” value [3, 13] was 59 (5) %. The “% of control metabolism, raloxifene G1” value [3, 14] was 37 (2) %, the “% of control metabolism, raloxifene G2” value [3, 14] was 46 (3) % and the “% of control metabolism, raloxifene G1” value [3, 15] was 31 (3) %. The “% of control metabolism, raloxifene G2” value [3, 15] was 52 (7) %, the “inhibition of raloxifene glucuronidation, in words” value (UGT1A1; UGT1A1) was “excellent inhibitor” and the activity at 15 min (UGT1A1; Supersomes with recombinant human UGT1A1, pH 7.5, probe raloxifene 50 μM, formation of glucuronide G1) was 65%. The activity at 15 min, 10 µM (UGT1A1; [16]) was 65%, the activity at 15 min, 25 µM (UGT1A1; [16]) was 37% and the activity at 15 min, 50 µM (UGT1A1; [16]) was 18%. It also gave an activity at 15 min, 25 µM (UGT1A1; [17]) of 37%, an activity at 15 min, 50 µM (UGT1A1; [17]) of 18% and an activity at 15 min, 10 µM (UGT1A1; [18]) of 75%. The activity at 15 min, 25 µM (UGT1A1; [18]) was 51%, the activity at 15 min, 50 µM (UGT1A1; [18]) was 31% and the activity at 15 min (UGT1A1; recombinant UGT1A1 Supersomes, pH 7.5, probe raloxifene 50 μM (formation of glucuronide G2)) was 75%. For the same compound, the activity at 15 min, 25 µM (UGT1A1; [19]) was 51%, the activity at 15 min, 50 µM (UGT1A1; [19]) was 31% and the “Vmax of 7-HFC glucuronidation (fit of the experiment with this inhibitor)” value [4] was 57 ± 3 nmol/min/mg. The Km ([4]; read-out: Km of 7-HFC glucuronidation (fit of the experiment with this inhibitor)) was 81 ± 7 µM, the “inhibition of raloxifene glucuronidation, in words” value (UGT1A3; UGT1A3) was “excellent inhibitor” and the activity at 15 min, 10 µM (UGT1A3; [20]) was 61%. For the same compound, the activity at 15 min, 25 µM (UGT1A3; [20]) was 28%, the activity at 15 min, 50 µM (UGT1A3; [20]) was 12% and the activity at 15 min, 10 µM (UGT1A3; [21]) was 60%. It also gave an activity at 15 min, 25 µM (UGT1A3; [21]) of 31%, an activity at 15 min, 50 µM (UGT1A3; [21]) of 13% and an activity at 15 min, 10 µM (UGT1A3; [22]) of 61%. For the same compound, the activity at 15 min, 25 µM (UGT1A3; [22]) was 28%, the activity at 15 min, 50 µM (UGT1A3; [22]) was 12% and the activity at 15 min, 10 µM (UGT1A3; [23]) was 60%. It also gave an activity at 15 min, 25 µM (UGT1A3; [23]) of 31% and an activity at 15 min, 50 µM (UGT1A3; [23]) of 13%.
